Laboratory results published in patent publication US20230160909A1, “NOVEL ION CONDUCTING CHANNEL FUSION SUBUNITS AND METHODS OF USE THEREOF” (UNIVERSITE DE BORDEAUX, priority 2020, published 2023).

Experiments:
Assay type in all cases: cell-based
TRPV1 ion channel = molecular target: T1, TRPV1 ion channel (Homo sapiens, UniProt Q8NER1); assay: mNeonGreen-Calflux-nLuc-hTRPV1 BRET biosensor in HEK293T cells; conditions: kinetic measurement, FIG. 8A
T1 construct: expressed in transfected cells; host or cells: HEK293T
T1 sequence (Q8NER1 whole entry): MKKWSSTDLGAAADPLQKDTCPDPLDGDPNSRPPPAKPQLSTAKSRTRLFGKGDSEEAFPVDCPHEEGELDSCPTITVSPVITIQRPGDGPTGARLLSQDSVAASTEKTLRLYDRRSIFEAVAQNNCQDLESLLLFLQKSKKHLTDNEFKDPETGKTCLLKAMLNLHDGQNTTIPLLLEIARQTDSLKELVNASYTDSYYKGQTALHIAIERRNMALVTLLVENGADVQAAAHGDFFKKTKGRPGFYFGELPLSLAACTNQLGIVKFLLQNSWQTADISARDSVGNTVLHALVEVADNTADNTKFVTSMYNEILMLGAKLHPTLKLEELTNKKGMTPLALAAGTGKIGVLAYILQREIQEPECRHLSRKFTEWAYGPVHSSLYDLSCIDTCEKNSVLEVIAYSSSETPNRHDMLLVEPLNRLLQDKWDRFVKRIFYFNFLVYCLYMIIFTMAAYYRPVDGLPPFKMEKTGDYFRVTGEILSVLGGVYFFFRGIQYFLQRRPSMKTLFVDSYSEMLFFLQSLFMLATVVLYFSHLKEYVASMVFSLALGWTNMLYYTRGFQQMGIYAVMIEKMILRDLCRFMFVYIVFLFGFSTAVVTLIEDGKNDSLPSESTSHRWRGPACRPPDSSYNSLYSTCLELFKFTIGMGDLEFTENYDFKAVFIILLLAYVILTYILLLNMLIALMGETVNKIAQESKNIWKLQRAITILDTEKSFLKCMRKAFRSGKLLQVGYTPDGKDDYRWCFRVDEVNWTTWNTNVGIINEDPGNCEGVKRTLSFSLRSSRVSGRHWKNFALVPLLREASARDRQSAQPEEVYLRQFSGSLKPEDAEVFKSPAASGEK

P2X2 = molecular target: T2, P2X2 (Rattus norvegicus, UniProt P49653); assay: rP2X2-nLuc-Calflux-YFP BRET probe in HEK293T cells; conditions: read-out: EC50 of activation of P2X2-NLuc-CalFlux-YFP probe
T2 construct: expressed in transfected cells; host or cells: HEK293T
T2 sequence (P49653 1-472): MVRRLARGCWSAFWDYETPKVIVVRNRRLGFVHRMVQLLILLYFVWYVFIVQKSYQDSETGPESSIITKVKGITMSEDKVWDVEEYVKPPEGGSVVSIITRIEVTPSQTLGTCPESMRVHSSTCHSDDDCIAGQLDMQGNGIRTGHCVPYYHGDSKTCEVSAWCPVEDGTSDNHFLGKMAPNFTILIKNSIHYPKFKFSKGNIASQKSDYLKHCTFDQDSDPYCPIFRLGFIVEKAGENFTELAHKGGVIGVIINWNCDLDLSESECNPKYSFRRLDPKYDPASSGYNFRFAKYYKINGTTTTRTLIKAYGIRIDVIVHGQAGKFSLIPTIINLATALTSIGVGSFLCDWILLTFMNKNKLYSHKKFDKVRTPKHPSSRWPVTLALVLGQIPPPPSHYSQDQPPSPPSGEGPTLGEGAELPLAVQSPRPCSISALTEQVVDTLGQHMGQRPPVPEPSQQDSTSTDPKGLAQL

TRPV1 channel = molecular target: T3, TRPV1 channel (Homo sapiens, UniProt Q8NER1); assay: hTRPV1-nLuc-Calflux-YFP (or mNeonGreen) BRET probe in HEK293T cells; conditions: TRPV1-nLuc-Calflux-YFP/mNeonGreen probe
T3 construct: expressed in transfected cells; host or cells: HEK293T
T3 sequence (Q8NER1 whole entry): as the sequence (Q8NER1 whole entry) above

hP2X4 = molecular target: T4, hP2X4 (Homo sapiens, UniProt Q99571); assay: hP2X4-NeonGreen-Calflux-nLuc BRET probe in HEK293T cells; conditions: read-out: EC50 of activation of hP2X4 probe
T4 construct: expressed in transfected cells; host or cells: HEK293T
T4 sequence (Q99571 1-388): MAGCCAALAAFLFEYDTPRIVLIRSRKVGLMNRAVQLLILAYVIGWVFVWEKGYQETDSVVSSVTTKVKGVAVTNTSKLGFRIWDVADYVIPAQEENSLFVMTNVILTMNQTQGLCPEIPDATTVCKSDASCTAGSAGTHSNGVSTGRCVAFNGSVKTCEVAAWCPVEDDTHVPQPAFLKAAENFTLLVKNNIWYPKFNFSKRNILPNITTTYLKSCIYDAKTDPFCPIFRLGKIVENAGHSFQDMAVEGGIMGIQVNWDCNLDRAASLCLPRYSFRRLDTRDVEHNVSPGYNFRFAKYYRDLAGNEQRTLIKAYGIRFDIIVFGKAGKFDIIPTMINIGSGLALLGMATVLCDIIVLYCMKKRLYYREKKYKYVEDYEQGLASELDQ
Source text: (§1) Values were normalized to the maximal efficacy measured individually for each probe and represent the mean of three independent experiments.
(§2) We constructed human and murine P2X-NeonGreen-Calflux-nLuc probes wherein the DNA sequence encoding the seven human or mouse P2X subunits are individually fused in C-terminal to the calflux calcium sensor sandwiched in between the nanoluciferase and mNeonGreen (FIG. 11 left panel).

hP2X2 = molecular target: T5, hP2X2 (Homo sapiens, UniProt Q9UBL9); assay: hP2X2-NeonGreen-Calflux-nLuc BRET probe in HEK293T cells; conditions: read-out: EC50 of activation of hP2X2 probe
T5 construct: expressed in transfected cells; host or cells: HEK293T
T5 sequence (Q9UBL9 1-471): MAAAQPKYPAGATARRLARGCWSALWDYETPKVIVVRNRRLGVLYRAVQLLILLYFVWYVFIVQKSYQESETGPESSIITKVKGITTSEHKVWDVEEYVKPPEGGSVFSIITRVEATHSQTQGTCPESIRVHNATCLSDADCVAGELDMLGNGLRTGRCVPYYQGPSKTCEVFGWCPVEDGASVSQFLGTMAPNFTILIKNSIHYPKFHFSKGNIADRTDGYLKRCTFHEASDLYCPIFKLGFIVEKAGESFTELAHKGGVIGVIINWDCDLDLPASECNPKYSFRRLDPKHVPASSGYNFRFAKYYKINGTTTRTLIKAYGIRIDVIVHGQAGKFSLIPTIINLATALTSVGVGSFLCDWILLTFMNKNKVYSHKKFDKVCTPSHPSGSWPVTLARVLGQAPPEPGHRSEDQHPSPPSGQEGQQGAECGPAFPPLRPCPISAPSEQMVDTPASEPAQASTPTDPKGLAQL
Source text: as §1, §2

mP2X4 = molecular target: T6, mP2X4 (Mus musculus, UniProt Q9JJX6); assay: mP2X4-NeonGreen-Calflux-nLuc BRET probe in HEK293T cells; conditions: FIG. 11
T6 construct: expressed in transfected cells; host or cells: HEK293T
T6 sequence (Q9JJX6 1-388): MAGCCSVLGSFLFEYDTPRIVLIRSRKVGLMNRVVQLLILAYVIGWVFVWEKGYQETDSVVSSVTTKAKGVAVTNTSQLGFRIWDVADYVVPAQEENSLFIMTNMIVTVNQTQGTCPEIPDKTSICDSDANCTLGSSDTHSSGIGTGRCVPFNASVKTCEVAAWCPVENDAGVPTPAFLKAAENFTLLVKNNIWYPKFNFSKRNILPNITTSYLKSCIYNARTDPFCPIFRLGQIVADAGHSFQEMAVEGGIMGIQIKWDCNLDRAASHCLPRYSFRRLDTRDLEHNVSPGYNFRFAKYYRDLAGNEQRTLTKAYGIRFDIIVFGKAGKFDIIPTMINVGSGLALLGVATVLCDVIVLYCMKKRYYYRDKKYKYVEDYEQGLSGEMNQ
Source text: as §1, §2

hP2X5 = molecular target: T7, hP2X5 (Homo sapiens, UniProt Q93086); assay: hP2X5-NeonGreen-Calflux-nLuc BRET probe in HEK293T cells; conditions: read-out: EC50 of activation of hP2X5 probe
T7 construct: expressed in transfected cells; host or cells: HEK293T
T7 sequence (Q93086 whole entry): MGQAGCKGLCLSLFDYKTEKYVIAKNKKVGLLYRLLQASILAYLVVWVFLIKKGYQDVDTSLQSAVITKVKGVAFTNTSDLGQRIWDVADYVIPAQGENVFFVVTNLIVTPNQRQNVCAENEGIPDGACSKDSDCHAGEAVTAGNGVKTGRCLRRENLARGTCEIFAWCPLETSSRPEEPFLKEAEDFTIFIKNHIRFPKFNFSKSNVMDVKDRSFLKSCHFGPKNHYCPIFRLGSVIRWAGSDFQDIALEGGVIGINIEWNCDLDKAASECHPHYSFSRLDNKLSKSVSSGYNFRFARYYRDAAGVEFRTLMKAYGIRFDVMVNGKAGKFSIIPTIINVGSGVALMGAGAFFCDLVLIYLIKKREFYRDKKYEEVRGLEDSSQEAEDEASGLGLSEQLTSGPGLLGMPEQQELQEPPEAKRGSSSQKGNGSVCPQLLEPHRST
Source text: as §1, §2

GABARho1 (GABA receptor) = molecular target: T8, GABARho1 (GABA receptor) (Homo sapiens, UniProt P24046); assay: YPetCI BRET sensor inserted in GABARho1 subunit; conditions: with or without untagged GABARho1 subunit, FIG. 13G
T8 construct: expressed in transfected cells; host or cells: HEK cells are stated only for the free probe
T8 sequence (P24046 22-479): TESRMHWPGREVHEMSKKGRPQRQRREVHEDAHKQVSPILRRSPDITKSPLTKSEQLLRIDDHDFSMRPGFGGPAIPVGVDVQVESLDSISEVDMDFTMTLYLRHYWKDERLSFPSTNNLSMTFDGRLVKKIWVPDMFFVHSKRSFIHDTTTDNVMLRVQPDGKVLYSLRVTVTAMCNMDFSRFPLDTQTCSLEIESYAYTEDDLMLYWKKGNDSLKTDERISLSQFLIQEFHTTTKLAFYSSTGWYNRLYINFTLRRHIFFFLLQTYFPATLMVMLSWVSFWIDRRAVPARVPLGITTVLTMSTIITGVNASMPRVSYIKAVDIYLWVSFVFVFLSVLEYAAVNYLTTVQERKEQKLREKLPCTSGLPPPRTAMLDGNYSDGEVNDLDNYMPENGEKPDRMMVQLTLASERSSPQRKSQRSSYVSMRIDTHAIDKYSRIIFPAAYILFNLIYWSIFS
Source text: FIG. 13: Biosensors allowing to track Cys-loop receptor family activity. Insertion of NG-CF-NL or NL-CF-YFP probes in the second intracellular loop of cationic receptors (A) allows to track activity of nicotinic (B) or serotonin receptors (C). A BRET probe called YPetCI was also developed to sense intracellular anionic flux (D and F). When inserted in the second intracellular loop of GABARho1 subunit this probe allows to track activity of the GABA receptor (G).
We also developed a BRET probe allowing to sense anionic flux by fusing the cDNA of a chloride sensitive variant of YFP (YFP Chlore or YPetCI) to the cDNA of nLuc (FIG. 13D). When expressed in HEK cells this probe is able to detect the anionic influx generated by VRAC channel opening following a hypotonic challenge (FIG. 13F). Based on this probe, we generated a biosensor allowing to measure the activity of the anionic GABA receptors. We inserted the cDNA of the YPetCI sensor in the second intracellular loop of the GABARho1 subunit (FIG. 13E).

hP2X7 = molecular target: T9, hP2X7 (Homo sapiens, UniProt Q99572); assay: hP2X7-NeonGreen-Calflux-nLuc BRET probe in HEK293T cells; conditions: read-out: EC50 of activation of hP2X7 probe
T9 construct: expressed in transfected cells; host or cells: HEK293T
T9 sequence (Q99572 1-595): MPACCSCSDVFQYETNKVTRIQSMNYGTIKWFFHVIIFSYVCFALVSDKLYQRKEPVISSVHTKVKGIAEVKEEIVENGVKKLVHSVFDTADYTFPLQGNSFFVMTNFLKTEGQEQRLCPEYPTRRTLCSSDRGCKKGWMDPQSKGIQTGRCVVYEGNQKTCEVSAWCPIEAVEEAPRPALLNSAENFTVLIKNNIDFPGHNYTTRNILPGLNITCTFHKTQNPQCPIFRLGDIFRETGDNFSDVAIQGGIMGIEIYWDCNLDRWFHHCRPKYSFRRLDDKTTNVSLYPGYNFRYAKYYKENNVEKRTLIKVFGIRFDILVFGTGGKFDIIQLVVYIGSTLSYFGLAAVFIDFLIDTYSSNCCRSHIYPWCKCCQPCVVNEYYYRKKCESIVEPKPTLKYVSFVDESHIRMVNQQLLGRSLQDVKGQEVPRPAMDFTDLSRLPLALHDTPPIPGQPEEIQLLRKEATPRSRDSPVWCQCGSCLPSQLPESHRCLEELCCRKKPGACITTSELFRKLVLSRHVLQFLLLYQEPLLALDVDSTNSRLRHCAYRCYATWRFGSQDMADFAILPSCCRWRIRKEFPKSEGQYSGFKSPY
Source text: as §1, §2

Which results are given for `Nc1ncnc2c1ncn2[C@@H]1O[C@H](COP(=O)(O)OP(=O)(O)OP(=O)(O)O)[C@@H](O)[C@H]1O` [ATP]?
change of basal BRET after exposure (TRPV1 ion channel): only faintly and transiently increased; EC50 (P2X2): 888 ± 274 nM; change of BRET signal on stimulation (TRPV1 channel): does not respond; EC50 (hP2X4): 490 nM; EC50 (hP2X2): 1630 nM; modulation of basal BRET signal (mP2X4): modulated in a dose-dependent manner; EC50 (hP2X5): 480 nM

For `NCCCC(=O)O` [GABA, γ-aminobutyric acid], which “modulation of BRET signal” value (GABARho1 (GABA receptor)) is on record?
Its value is “modulated”.

For BzATP, which EC50 (hP2X7) is on record?
The EC50 was 49000 nM.
